The values that follow come from patent US20080176854A1, “Nitro-Substituted Phenyl-Piperazine Compounds, Their Preparation and Use in Medicaments” (Laboratorios Del Dr. Esteve S.A, priority 2004, published 2008).

In the assay the target is T1, 5HT6-human recombinant receptor (Homo sapiens, UniProt P50406).
T1 construct: purchased Receptor Biology; host or cells: HEK-293 cell membranes
T1 sequence (P50406 whole entry): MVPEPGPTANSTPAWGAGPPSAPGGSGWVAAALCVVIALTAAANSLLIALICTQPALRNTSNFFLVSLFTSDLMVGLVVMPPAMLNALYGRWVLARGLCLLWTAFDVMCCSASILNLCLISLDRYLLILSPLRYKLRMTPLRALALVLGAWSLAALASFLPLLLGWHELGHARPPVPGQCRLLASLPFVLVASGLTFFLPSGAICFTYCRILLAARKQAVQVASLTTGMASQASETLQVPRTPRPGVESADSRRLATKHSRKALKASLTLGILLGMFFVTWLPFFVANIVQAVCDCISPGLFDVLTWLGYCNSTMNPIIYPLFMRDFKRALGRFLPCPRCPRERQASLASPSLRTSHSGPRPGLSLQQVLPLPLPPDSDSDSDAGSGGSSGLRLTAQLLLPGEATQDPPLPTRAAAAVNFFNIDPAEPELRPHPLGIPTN
Description: Binding to serotonin receptor 5-HT6 ([3H]-LSD radioligand displacement). Conditions: membranes of HEK-293 cells expressing the receptor; radioligand [3H]-LSD 2.7 nM; 60 minutes at 37° C; triplicate. The procedure:
I) Binding to Serotonin Receptor 5-HT6
Cell membranes of HEK-293 cells expressing the 5HT6-human recombinant receptor were supplied by Receptor Biology. In said membranes the receptor concentration is 2.18 pmol/mg protein and the protein concentration is 9.17 mg/ml. The experimental protocol follows the method of B. L. Roth et al. [B. L. Roth, S. C. Craigo, M. S. Choudhary, A. Uluer, F. J. Monsma, Y. Shen, H. Y. Meltzer, D. R. Sibley: Binding of Typical and Atypical Antipsychotic Agents to 5-Hydroxytryptamine-6 and Hydroxytryptamine-7 Receptors. The Journal of Pharmacology and Experimental Therapeutics, 1994, 268, 1403] with the following slight changes. The respective part of the literature description is hereby incorporated by reference and forms part of the disclosure.
The commercial membrane is diluted (1:40 dilution) with the binding buffer: 50 mM Tris-HCl, 10 mM MgCl2, 0.5 mM EDTA (pH 7.4). The radioligand used is [^3H]-LSD at a concentration of 2.7 nM with a final volume of 200 μl. Incubation is initiated by adding 100 μl of membrane suspension, (≈22.9 μg membrane protein), and is prolonged for 60 minutes at a temperature of 37° C. The incubation is ended by fast filtration in a Brandel Cell Harvester through fiber glass filters made by Schleicher & Schuell G F 3362 pretreated with a solution of polyethylenimine at 0.5%. The filters are washed three times with three milliliters of buffer Tris-HCl 50 mM pH 7.4. The filters are transferred to flasks and 5 ml of Ecoscint H liquid scintillation cocktail are added to each flask. The flasks are allowed to reach equilibrium for several hours before counting with a Wallac Winspectral 1414 scintillation counter. Non-specific binding is determined in the presence of 100 μM of serotonin. Tests were made in triplicate. The inhibition constants (Ki, nM) were calculated by non-linear regression analysis using the program EBDA/LIGAND described in Munson and Rodbard, Analytical Biochemistry, 1980, 107, 220, the respective part of which is hereby incorporated by reference and forms part of the disclosure.
The binding of the nitro-substituted phenyl-piperazine compounds to the 5-HT6 receptor was determined as described above.
Background: In a radioligand displacement assay an active substance lowers the binding of a labelled ligand.
As a reminder, the Ki is the equilibrium dissociation constant of an inhibitor or competing ligand from its target. Take `CN1CCN(c2ccc([N+](=O)[O-])c(NCCOc3ccc(C(C)(C)C)cc3)c2)CC1` [Example 45, [2-(4-tert-Butyl-phenoxy)-ethyl]-[5-(4-methyl-piperazin-1-yl)-2-nitro-phenyl]-amine]: the Ki is 80.3 nM.
Take `Cc1ccccc1OCCNc1cc(N2CCN(C)CC2)ccc1[N+](=O)[O-]` [Example 55, [5-(4-Methyl-piperazin-1-yl)-2-nitro-phenyl]-(2-o-tolyloxy-ethyl)-amine]: the Ki is 26.1 nM.
In the case of `O=[N+]([O-])c1ccc(N2CCNCC2)cc1NCc1cccnc1` [Example 26, (2-Nitro-5-piperazin-1-yl-phenyl)-pyridin-3-ylmethyl-amine], the Ki turned out to be 1510 nM.
In the case of `CN1CCN(c2ccc([N+](=O)[O-])c(-n3nc(-c4ccccc4)c4ccccc4c3=O)c2)CC1` [Example 31, 2-[5-(4-Methyl-piperazin-1-yl)-2-nitro-phenyl]-4-phenyl-2H-phthalazin-1-one] it was 1710 nM; in that of `O=[N+]([O-])c1ccc(N2CCNCC2)cc1NCCOc1ccccc1` [Example 30, (2-Nitro-5-piperazin-1-yl-phenyl)-(2-phenoxy-ethyl)-amine], 114 nM.
In the case of `CN1CCN(c2ccc([N+](=O)[O-])c(-n3nc(-c4ccccc4)c4ccccc4c3=O)c2)CC1` [Example 16, 2-[5-(4-Methyl-piperazin-1-yl)-2-nitro-phenyl]-4-phenyl-2H-phthalazin-1-one] it was 732 nM; in that of `CC(Nc1cc(N2CCN(C)CC2)ccc1[N+](=O)[O-])c1ccccc1` (stereo not drawn) [Example 59, [5-(4-Methyl-piperazin-1-yl)-2-nitro-phenyl]-(1-phenyl-ethyl)-amine], 11.9 nM; in that of `CN1CCN(c2ccc([N+](=O)[O-])c(NCc3cccnc3)c2)CC1` [Example 24, [5-(4-Methyl-piperazin-1-yl)-2-nitro-phenyl]-pyridin-3-ylmethyl-amine], 1270 nM.
To `O=[N+]([O-])c1ccc(N2CCNCC2)cc1NCc1ccc(Cl)cc1` [Example 52, (4-Chloro-benzyl)-(2-nitro-5-piperazin-1-yl-phenyl)-amine] belongs 8.3 nM.
In the case of `CN1CCN(c2ccc([N+](=O)[O-])c(Oc3ccccc3)c2)CC1` [Example 7, 1-Methyl-4-(4-nitro-3-phenoxy-phenyl)-piperazine], the Ki is 26.6 nM.
To `Cc1ccccc1OCCNc1cc(N2CCNCC2)ccc1[N+](=O)[O-]` [Example 13, (2-Nitro-5-piperazin-1-yl-phenyl)-(2-o-tolyloxy-ethyl)-amine] belongs 162 nM.
To `O=[N+]([O-])c1ccc(N2CCNCC2)cc1NCc1ccccc1` [Example 22, Benzyl-(2-nitro-5-piperazin-1-yl-phenyl)-amine] belongs 27.5 nM; to `CN1CCN(c2ccc([N+](=O)[O-])c(NC(c3ccccc3)c3ccccc3)c2)CC1` [Example 29, Benzhydryl-[5-(4-methyl-piperazin-1-yl)-2-nitro-phenyl]-amine], 4490 nM.
To `O=[N+]([O-])c1ccc(N2CCNCC2)cc1N1CCN(Cc2ccccc2)CC1` [Example 27, 1-Benzyl-4-(2-nitro-5-piperazin-1-yl-phenyl)-piperazine] belongs 3780 nM.
In the case of `Cc1cc(C)n(-c2cc(N3CCNCC3)ccc2[N+](=O)[O-])n1` [Example 32, 1-[3-(3,5-Dimethyl-pyrazol-1-yl)-4-nitro-phenyl]-piperazine], the Ki turned out to be 482 nM.
For `O=[N+]([O-])c1ccc(N2CCN(Cc3ccccc3)CC2)cc1NCc1ccccc1` [Example 53, Benzyl-[5-(4-benzyl-piperazin-1-yl)-2-nitro-phenyl]-amine], the Ki amounted to 34.3 nM.
In the case of `O=[N+]([O-])c1ccc(N2CCNCC2)cc1NCCOc1ccc(Cl)cc1` [Example 58, [2-(4-Chloro-phenoxy)-ethyl]-(2-nitro-5-piperazin-1-yl-phenyl)-amine] it was 290 nM; in that of `COc1ccccc1OCCNc1cc(N2CCN(C)CC2)ccc1[N+](=O)[O-]` [Example 51, [2-(2-Methoxy-phenoxy)-ethyl]-[5-(4-methyl-piperazin-1-yl)-2-nitro-phenyl]-amine], 19.1 nM; in that of `CN1CCN(c2ccc([N+](=O)[O-])c(N3CCOCC3)c2)CC1` [Example 15, 4-[5-(4-Methyl-piperazin-1-yl)-2-nitro-phenyl]-morpholine], 2710 nM.
In the case of `Cc1cc(C)n(-c2cc(N3CCN(C)CC3)ccc2[N+](=O)[O-])n1` [Example 21, 1-[3-(3,5-Dimethyl-pyrazol-1-yl)-4-nitro-phenyl]-4-methyl-piperazine], the Ki came to 250 nM.
To `COc1ccc(OCCNc2cc(N3CCN(C)CC3)ccc2[N+](=O)[O-])cc1` [Example 46, [2-(4-Methoxy-phenoxy)-ethyl]-[5-(4-methyl-piperazin-1-yl)-2-nitro-phenyl]-amine] belongs 245 nM; to `O=[N+]([O-])c1ccc(N2CCNCC2)cc1NCc1ccco1` [Example 57, Furan-2-ylmethyl-(2-nitro-5-piperazin-1-yl-phenyl)-amine], 25 nM.
Consider `CN1CCN(c2ccc([N+](=O)[O-])c(Nn3cccc3)c2)CC1` [Example 5, [5-(4-Methyl-piperazin-1-yl)-2-nitro-phenyl]-pyrrol-1-yl-amine], for which the Ki worked out at 481 nM.
To `CN1CCN(c2ccc([N+](=O)[O-])c(NCCc3ccccc3)c2)CC1` [Example 23, [5-(4-Methyl-piperazin-1-yl)-2-nitro-phenyl]-phenethyl-amine] belongs 118 nM; to `CN1CCN(c2ccc([N+](=O)[O-])c(NCc3ccc(Cl)cc3)c2)CC1` [Example 56, (4-Chloro-benzyl)-[5-(4-methyl-piperazin-1-yl)-2-nitro-phenyl]-amine], 59 nM; to `CC1CN(c2ccc([N+](=O)[O-])c(NCCOc3ccc(Cl)cc3)c2)CC(C)N1` (stereo not drawn) [Example 17, [2-(4-Chloro-phenoxy)-ethyl]-[5-(3,5-dimethyl-piperazin-1-yl)-2-nitro-phenyl]-amine], 5000 nM.
For the compound `O=[N+]([O-])c1ccc(N2CCN(CCO)CC2)cc1NCCc1ccccc1` [Example 12, 2-[4-(4-Nitro-3-phenethylamino-phenyl)-piperazin-1-yl]-ethanol], the Ki stood at 6330 nM.
To `CN1CCN(c2ccc([N+](=O)[O-])c(NCc3ccco3)c2)CC1` [Example 11, Furan-2-ylmethyl-[5-(4-methyl-piperazin-1-yl)-2-nitro-phenyl]-amine] belongs 61.2 nM.
Take `CN1CCN(c2ccc([N+](=O)[O-])c(NCc3ccc(F)cc3)c2)CC1` [Example 2, (4-Fluoro-benzyl)-[5-(4-methyl-piperazin-1-yl)-2-nitro-phenyl]-amine]: the Ki turned out to be 172 nM.
To `O=[N+]([O-])c1ccc(N2CCNCC2)cc1NCCc1ccccc1` [Example 33, (2-Nitro-5-piperazin-1-yl-phenyl)-phenethyl-amine] belongs 33.1 nM.
